Results on five compounds are retold here after US20220071955A1, “Methods of Treatment, Prevention and Diagnosis” (The Walter and Eliza Hall Institute of Medical Research, priority 2018, published 2022).

In data set [1] the test system is TDP-43 mutant mice. Put plainly: Rotarod test in TDP-43 mutant mice with established disease. Format: in vivo, mouse. Conditions: H-151 (3.75 mM) i.p. every the other day for 4 weeks from 120 days of age. On the technique in general: Falling from the rotarod earlier than controls is read as motor impairment.
The test system of data set [2] is ALS patient iPSC-derived motor neurons. Put plainly: LDH cytotoxicity assay and brightfield imaging of iPSC-derived motor neurons. Format: cell-based, human. The conditions noted are these: H-151 1 μM, 4-week treatment. The source says:
(§1) The established human iPSC lines used in this study included two controls (NCRM-1 and NCRM-5) from the National Institute of Neurological Disorders and Stroke, one control and one ALS patient from Alessandro Rosa, one ALS patient from RIKEN and one ALS patient (TALSTDP-47.10) from the Target ALS Foundation. All iPSCs were maintained on Matrigel (Corning, 354277)-coated 6-well plates in mTeSR1 (STEMCell Technologies, 85850) containing 1× Primocin (Invivogen, ant-pm-1) and passaged 1:6 using ReLeSR (STEMCell Technologies, 05872) with ROCK inhibitor Y-27632 (STEMCell Technologies, 72304) for the first 24 hours. The medium was replaced daily. Cells were cyropreserved in mTeSR1/10% DMSO.
(§2) Differentiation of iPSCs into ChAT^+ motor neurons was performed as described previously (Du et al., 2015) All medium and reagents from Gibco unless otherwise stated.
Human iPSCs were cultured in a chemically defined Neural Medium: DMEM/F12:Neurobasal (1:1) supplemented with 0.5×N2, 0.5×B27, 0.1 mM L-ascorbic acid (Sigma), 1× Glutamax and 1× Primocin (Invivogen) containing 3 μM CHIR99021 (STEMCell Technologies, 72054), 2 μM Dorsomorphin (STEMCell Technologies, 72102) and 2 μM SB431542 (STEMCell Technologies, 72234) for 6 days, and the medium was changed every other day. […]

For data set [3], the system named is TDP-43 overexpressing Thp1 cells. Description: IFNB1 and TNF induction (qPCR) in TDP-43 overexpressing Thp1 cells. The format is cell-based, human. The conditions noted are these: Thp1 cells overexpressing TDP-43 (WT or Q331K). The protocol: (§3) Immortalised mouse embryonic fibroblasts (MEFs) lacking MAVS, PKR, cGAS, STING, Bax/Bak, Mcl1 or WT control were maintained in DME/KELSO medium (in-house DMEM containing 40 mM sodium bicarbonate, 1 mM HEPES, 0.0135 mM folic acid, 0.24 mM L-asparagine, 0.55 mM L-arginine, 1×Pen/Strep and 22.2 mM D-glucose) supplemented with 10% FBS (Sigma-Aldrich). Transfection of MEFs was performed using FuGENE HD (Promega). AGK−/− (gift from D. Stojanovski) and WT HEK293T cells were maintained in DMEM supplemented with 10% FBS, 100 U/mL Penicillin and 100 μg/mL Streptomycin. Lipofectamine 2000 (Life Technologies) was used to transfect HEK293T cells according to manufacturers' instructions. Human monocytic THP-1 cells were grown in RPMI-1640 with 10% FBS, 100 U/mL Penicillin and 100 μg/mL Streptomycin. The above cell culture was conducted at 37° C. in a humidified atmosphere with 10% CO2. […] The depletion was analysed using real-time qPCR to measure expression of mitochondrial DNA genes and nuclear genes (see Quantitative real-time PCR below).
(§4) Total RNA was isolated using the ISOLATE II RNA Mini Kit (Bioline) as per manufacturers' instructions and reverse transcribed using oligo(dT) nucleotides. Primers for cytokines, mitochondrial DNA and housekeeping genes were used as described previously (White et al., 2014; De Nardo et al., 2014). Others were designed using the Integrated DNA Technologies online tool as follows: hsIFNB1 FW, 5′-TGTCGCCTACTACCTGTTGTGC-3′ (SEQ ID NO:17); hsIFNB1 RV, 5′-AACTGCAACCTTTCGAAGCC-3′ (SEQ ID NO:18); mmIfnb1 FW: 5′-CCAGCTCCAAGAAAGGACGA-3′ (SEQ ID NO:19); mmIfnb1 RV: 5′-TGGATGGCAAAGGCAGTGTA-3′ (SEQ ID NO:20); mmIfna6 FW: 5′-GCTTTCCTGATGGTTTTGGTG-3′ (SEQ ID NO:21); mmIfna6 RV: 5′-AGGCTTTCTTGTTCCTGAGG-3′ (SEQ ID NO:22). Quantitative real-time PCR was performed using SYBR Green/ROX qPCR Master Mix (Thermo Scientific) on a ViiA 7 Real-Time PCR system (Thermo Scientific).
Cytokine expression from qPCR is represented as gene expression relative to Hprt expression as δCt method. Where indicated, relative gene expression in TDP-43 WT or mutant overexpressing cells was further normalised to expression in vector control transfected/overexpressed cells of the same genotype in the same experiment and represented as fold change. Data are typically mean±s.e.m and analysed by t-test between two groups or one- or two-way ANOVA followed by a Sidak or Dunnett multiple comparison test as appropriate. GraphPad Prism 7 was used for all charts and statistical analyses. A P values <0.05 was considered as significant.
Finally, to determine if pharmacological blockade of the cGAS-STING pathway is feasible, recently described inhibitors of cGAS (RU.521, described in Vincent et al., 2017) and STING (H-151 described in Haag et al) were tested. […]

Data set [4] concerns human iPSC-derived motor neurons. Description: IFNB1 and TNF gene induction (qPCR) in human iPSC-derived motor neurons. The format is cell-based. Conditions: motor neurons from healthy controls and ALS patients with TDP-43 mutations.
Excerpt: as §4, §1, §2
Human iPSCs were cultured in a chemically defined Neural Medium: DMEM/F12:Neurobasal (1:1) supplemented with 0.5×N2, 0.5×B27, 0.1 mM L-ascorbic acid (Sigma), 1× Glutamax and 1× Primocin (Invivogen) containing 3 μM CHIR99021 (STEMCell Technologies, 72054), 2 μM Dorsomorphin (STEMCell Technologies, 72102) and 2 μM SB431542 (STEMCell Technologies, 72234) for 6 days, and the medium was changed every other day.
The NEPs were dissociated with ReLeSR and cultured 1:6 on Matrigel-coated plates in the Neural Medium containing 1 μM CHIR99021, 2 μM Dorsomorphin and 2 μM SB431542 for 6 days. Y-27632 was used for the first 24 hours. The medium was changed every other day. At this stage of differentiation, MNPs were either expanded in the Neural Medium containing 3 μM CHIR99021, 2 μM Dorsomorphin, 2 μM SB431542, 0.1 μM all-trans retinoic acid (Sigma, R2500), 0.5 μM Purmorphamine (STEMCell Technologies, 72204) and 0.5 mM Valporic Acid (STEMCell Technologies, 72292) prior to MN diffrenertiation or cryopreserved in DMEM/F12 containing 10% FBS and 10% DMSO.
The MNPs were dissociated with ReLeSR and cultured on Matrigel-coated plates in the Neural Medium containing 0.5 μM all-trans RA and 0.1 μM Pur for 6 days into premature MNX1^+ MN. Y-27632 was used for the first 24 hours and the medium was replaced every other day. Subsequently, cells were detached with Accutase (Merck Millipore, SCR005) to generate single cell suspension and matured in the medium supplemented with 0.1 μM Compound E (STEMCell Technologies, 73954) for 10 days into ChAT^+ MNs. The medium was replaced every other day. Cells were plated in Matrigel-coated 8-well chamber slides (iBidi, 80826) to confirm cellular markers of MNs, including MNX1 (Merck Millipore, ABN174) and ChAT (Merck Millipore, […]) along with βIII-Tubulin (Promega, clone 5G8, G7121) staining using an inverted SP8 confocal microscopy (Leica).
A general note: Quantitative PCR measures a nucleic acid by following its amplification.

Data set [5] concerns MEFs. Put plainly: Super-resolution confocal microscopy of TDP-43-mediated DNA relocation from mitochondria into the cytoplasm. Conditions: CsA 25 μM. Format: cell-based, mouse. How it is done: MEF cell lines expressing doxycycline-induced Flagged TDP-43 were seeded onto glass coverslips (18 mm×18 mm, thickness 1½, Zeiss) for indicated times and prepared for imaging as previously described (McArthur et al., 2018). In brief, cells were fixed, blocked and incubated overnight at 4° C. with primary antibodies as follows: anti-Flag (In-house, 9H1), anti-DNA (ProGen, AC-30-10) and anti-TOM20 (Santa Cruz Biotech, sc-11415) in blocking buffer. Following two washes in PBS and an one-hour incubation with secondary antibodies [goat anti-rabbit AF647 (A21245), goat anti-mouse AF488 (A11001 and goat anti-rat AF568, A11077) from Life Technologies], coverslips were mounted onto the microscopy slide using Prolong Diamond Antifade Mountant (ThermoFisher Scientific). Three color imaging was performed on the OMX-SR system (GE Healthcare) using a 60 Å˜1.42 NA oil immersion lens (Olympus).

Data set [6] has as its system 293T cells. Put plainly: Ifnb1 gene expression induced by TDP-43 (qPCR). Conditions: CsA 25 μM. The format is cell-based. How it is done: as §3
Total RNA was isolated using the ISOLATE II RNA Mini Kit (Bioline) as per manufacturers' instructions and reverse transcribed using oligo(dT) nucleotides. […] Quantitative real-time PCR was performed using SYBR Green/ROX qPCR Master Mix (Thermo Scientific) on a ViiA 7 Real-Time PCR system (Thermo Scientific).

Entries after “also recorded” stand apart in the source; their conditions may differ.

`CCc1ccc(NC(=O)Nc2c[nH]c3ccccc23)cc1` [H-151]: the “latency to fall in a rotarod test” value in data set [1] is listed as “significantly improved”. Moreover, in data set [2], the “ALS-associated cytotoxicity (LDH, imaging)” value was “mitigates ALS-associated cytotoxicity”. Further, in data set [3], the IFNB1 induction entry is “prevent” and the TNF induction entry is reported as “prevent”. Moreover, in data set [4] (H-151 1 μM), the IFNB1 gene induction result is given as “prevent” and the TNF gene induction entry was “prevent”.

On to `COC1=C(OC)C(=O)C(CCCCCCCCCC[P+](c2ccccc2)(c2ccccc2)c2ccccc2)=C(C)C1=O` [MitoQ], for which, in data set [4] (ROS inhibitors 0.1-1 μM), the IFNB1 gene induction result was “prevent” and the TNF gene induction result is “prevent”.

On to `CC1(C)CC(NC(=O)C[P+](c2ccccc2)(c2ccccc2)c2ccccc2)CC(C)(C)N1[O]` [MitoTEMPO], for which, in data set [4] (ROS inhibitors 0.1-1 μM), the IFNB1 gene induction result is reported as “prevent” and the TNF gene induction result is on record as “prevent”.

On to `Cc1nn(-c2nc3ccc(Cl)c(Cl)c3[nH]2)c(O)c1C1OC(=O)c2ccccc21` (stereo not shown) [RU.521], for which, in data set [3], the IFNB1 induction entry is “prevent” and the TNF induction entry is reported as “prevent”. Further, in data set [4] (RU.521 10 μM), the IFNB1 gene induction entry is listed as “prevent” and the TNF gene induction entry is “prevent”.

As for cyclosporin A [CsA], in data set [5], the “TDP-43-mediated DNA relocation from mitochondria into the cytoplasm” value is on record as “prevented mtDNA leakage into the cytoplasm; also recorded: significantly reduced”. Also, the “Ifnb1 gene expression induced by TDP-43” value in data set [6] is recorded as “prevents”.
